Measurements published in patent publication US20090182031A1, “Reduction of Hair Growth” (The Gillette Company, a Delaware corporation, priority 2004, published 2009).

Tested on: human hair follicles
Assay: Human hair follicle growth assay
Format: cell-based
Conditions: for % Reduction (hair growth): versus control
Text: Human skin was obtained from a plastic surgeon as a by-product of face-lift procedures. The skin samples generally consisted of haired and non-haired regions taken from the area of the face. Immediately after removal, the skin was placed in Williams E medium containing antibiotics, and kept refrigerated. The Williams E medium was commercially obtained (Life Technologies, Gaithersburg, Md.), and has been formulated with essential nutrients for maintaining viability of hair follicle in an in-vitro environment.
Human hair follicles in growth phase (anagen) were isolated from face-lift tissue under a dissecting scope using a scalpel and watchmakers forceps. The skin was sliced into thin strips exposing 2-3 rows of follicles that could readily be dissected. Follicles were placed into 0.5 ml Williams E medium supplemented with 2 mM L-glutamine, 10 ug/ml insulin, 10 ng/ml hydrocortisone, 100 units penicillin, 0.1 mg/ml streptomycin and 0.25 μg/ml amphotericin B. The follicles were incubated in 24 well plates (1 follicle/well) at 37° C. in an atmosphere of 5% CO2 and 95% air. Hair follicle images were taken in the 24-well plates under the dissecting scope under a power of 20×. Hair follicle lengths were measured on day 0 (day follicles were placed in culture) and again on day 6-7. In this system follicles appear to fully differentiate into a hair fiber and increase in length at a rate similar to the human, in vivo, rate of about 0.3 mm/day. For testing inhibitors of heat shock proteins, the inhibitors or anti-HSP antibody were included in the culture medium from time 0 and remained in the medium throughout the course of the experiment.

Q: What does the source list for `COC1=C2C[C@@H](C)C[C@H](OC)[C@H](O)[C@@H](C)/C=C(\C)[C@H](OC(N)=O)[C@@H](OC)/C=C\C=C(/C)C(=O)NC(=CC1=O)C2=O` [Geldanamycin, 2-Azabicyclo[16.3.1]docosa-4,6,10,18,21-pentaene-3,20,22-trione, 9,13-dihydroxy-8,14,19-trimethoxy-4,10,12,16-tetramethyl-, 9-carbamate (8CI)]?
A: % Reduction (hair growth) (0.1 μM, day 0 to day 6): 52%; Length Increase (mm) (0.1 μM, follicle length day 6 minus day 0): 0.55 ± 0.13 mm; % Reduction (hair growth) (1 μM, day 0 to day 6): 74%; Length Increase (mm) (1 μM, follicle length day 6 minus day 0): 0.30 ± 0.08 mm; reduction of hair growth (submicromolar dose): over 50%

Q: For `O=CN1CCC(=Cc2ccc3c(c2)OCO3)C1=O` [KNK 437, 1-Pyrrolidinecarboxaldehyde, 3-(1,3-benzodioxol-5-ylmethylene)-2-oxo-(9CI)], which “% Reduction (hair growth)” value (10 μM, day 0 to day 5) is on record?
A: Its value is 57%.

Q: And the “Length Increase (mm)” value (10 μM, follicle length day 5 minus day 0)?
A: Its value is 0.75 ± 0.13 mm.

Q: And the “% Reduction (hair growth)” value (50 μM, day 0 to day 5)?
A: The value was 80%.

Q: And the “Length Increase (mm)” value (50 μM, follicle length day 5 minus day 0)?
A: The value was 0.35 ± 0.12 mm.
